Like-named read-outs stand apart in the source and are kept apart here. Some results are limits rather than exact numbers.

This assay has as its system NL-RLuc virus. In words: Inhibition of HIV replication (NL-RLuc virus, luciferase readout, MT-2 cells). The assay is classed as cell-based. The note with it: Human immunodeficiency virus 1, MT2, 120 h. The source says: Inhibition of HIV Replication:
A recombinant NL-RLuc proviral clone was constructed in which a section of the nef gene from NL4-3 was replaced with the Renilla Luciferase gene. This virus is fully infectious and can undergo multiple cycles of replication in cell culture. In addition, the luciferous reporter provides a simple and easy method for quantitating the extent of virus growth and consequently, the antiviral activity of test compounds. The plasmid pNLRLuc contains the proviral NL-Rluc DNA cloned into pUC18 at the PvuII site. The NL-RLuc virus was prepared by transfection of 293T cells with the plasmid pNLRLuc. Transfections were performed using the LipofectAMINE PLUS kit from Invitrogen (Carlsbad, Calif.) according to the manufacturer and the virus generated was titered in MT-2 cells. For susceptibility analyses, the titrated virus was used to infect MT-2 cells in the presence of compound, and after 5 days of incubation, cells were processed and quantitated for virus growth by the amount of expressed luciferase. Assay media was RPMI 1640 supplemented with 10% heat inactivated fetal bovine serum (FBS), 100 units/ml penicillin G/100 units/ml streptomycin, 10 mM HEPES buffer pH 7.55 and 2 mM L-glutamine. The results from at least 2 experiments were used to calculate the EC50 values. Luciferase was quantitated using the Dual Luciferase kit from Promega (Madison, Wis.). Susceptibility of viruses to compounds was determined by incubation in the presence of serial dilutions of the compound. The 50% effective concentration (EC50) was calculated by using the exponential form of the median effect equation where (Fa)=1/[1+(ED50/drug conc.)^m] (Johnson V A, Byington R T. Infectivity Assay. In Techniques in HIV Research. ed. Aldovini A, Walker B D. 71-76. New York: Stockton Press. 1990). Activity equal to A refers to a compound having an EC50≤100 nM, while B and C denote compounds having an EC50 between 100 nM and luM (B) or >1 uM (C).

`Cc1c([C@@H](OC(C)(C)C)C(=O)O)c2n3cc(nc3c1C)-c1cccc(c1)-c1cc(F)c(F)cc1O[C@@H](C)COCCOC1(C)CCN2CC1` [Example 3, (2R)-2-(tert-butoxy)-2-((6S,Z)-44,45-difluoro-14,27,6-trimethyl-5,8,11-trioxa-2(5,2)-imidazo[1,2-a]pyridina-1(1,4)-piperidina-3(1,3),4(1,2)-dibenzenacycloundecaphane-26-yl)acetic Acid]: the EC50 by setting is: (read-out: Activity) 0.1 to 1 µM; (read-out: EC50 μM) 0.305 µM.

As to `C=C(C)c1c(C)c([C@H](OC(C)(C)C)C(=O)O)c2n3cc(nc13)-c1cccc(c1)-c1cc(F)c(F)cc1O[C@@H](C)COCCOC1(C)CCN2CC1` [Example 14, (2S)-2-(tert-Butoxy)-2-[(22S)-17,18-difluoro-4,22,28-trimethyl-5-(prop-1-en-2-yl)-21,24,27-trioxa-1,7,34-triazahexacyclo[26.2.2.1^6,^9.1^1^0,^1^4.0^2,^7.0^1^5,^2^0]tetratriaconta-2,4,6(34),8,10(33),11,13,15(20),16,18-decaen-3-yl]acetic Acid], for the setting “read-out: Activity”, the EC50 is less than 0.1 µM.

On to `Cc1c([C@H](OC(C)(C)C)C(=O)O)c2n3c(Cl)c(nc3c1C)-c1cccc(c1)-c1cc(F)c(F)cc1O[C@@H](C)COCCOC1(C)CCN2CC1` [Example 8, (2S)-2-(tert-Butoxy)-2-[(22S)-8-chloro-17,18-difluoro-4,5,22,28-tetramethyl-21,24,27-trioxa-1,7,34-triazahexacyclo[26.2.2.1^6,^9.1^1^0,^1^4.0^2,^7.0^1^5,^2^0]tetratriaconta-2,4,6(34),8,10(33),11,13,15(20),16,18-decaen-3-yl]acetic Acid], for which the EC50 (read-out: Activity) is less than 0.1 µM.

As for `CCC(C)(C)O[C@H](C(=O)O)c1c(C)c(C)c2nc3cn2c1N1CCC(C)(CC1)OCCOC[C@H](C)Oc1cc(F)c(F)cc1-c1cccc-3c1` [Example 4, (2S)-2-[(22S)-17,18-Difluoro-4,5,22,28-tetramethyl-21,24,27-trioxa-1,7,34-triazahexacyclo[26.2.2.1^6,^9.1^1^0,^1^4.0^2,^7.0^1^5,^2^0]tetratriaconta-2,4,6(34),8,10(33),11,13,15(20),16,18-decaen-3-yl]-2-[(2-methylbutan-2-yl)oxy]acetic Acid], the EC50 (read-out: Activity) was less than 0.1 µM.

Regarding `Cc1c([C@H](OC(C)(C)C)C(=O)O)c2n3c(Cl)c(nc3c1Cn1ccnn1)-c1cccc(c1)-c1cc(F)c(F)cc1O[C@@H](C)COCCOC1(C)CCN2CC1` [Example 12, (2S)-2-(tert-Butoxy)-2-[(22S)-8-chloro-17,18-difluoro-4,22,28-trimethyl-5-(1H-1,2,3-triazol-1-ylmethyl)-21,24,27-trioxa-1,7,34-triazahexacyclo[26.2.2.1^6,^9.1^1^0,^1^4.0^2,^7.0^1^5,^2^0]tetratriaconta-2,4,6(34),8,10(33),11,13,15(20),16,18-decaen-3-yl]acetic Acid], the EC50 (read-out: Activity) was less than 0.1 µM and the EC50 (read-out: EC50 μM) was determined as 0.012 µM.

Regarding `Cc1ccc2c(c1)O[C@@H](C)COCCOC1(C)CCN(CC1)c1c([C@H](OC(C)(C)C)C(=O)O)c(C)c(C)c3nc(c(Cl)n13)-c1cccc-2c1` [Example 24, (2S)-2-(tert-Butoxy)-2-((6S,E)-23-chloro-14,27,28,44,6-pentamethyl-5,8,11-trioxa-2(5,2)-imidazo[1,2-a]pyridina-1(1,4)-piperidina-3(1,3),4(1,2)-dibenzenacycloundecaphane-26-yl)acetic Acid], the EC50 (read-out: Activity) is less than 0.1 µM.

In the case of `COCc1c(C)c([C@H](OC(C)(C)C)C(=O)O)c2n3c(Cl)c(nc13)-c1cccc(c1)-c1cc(F)c(F)cc1O[C@@H](C)COCCOC1(C)CCN2CC1` [Example 11, (2S)-2-(tert-Butoxy)-2-[(22S)-8-chloro-17,18-difluoro-5-(methoxymethyl)-4,22,28-trimethyl-21,24,27-trioxa-1,7,34-triazahexacyclo[26.2.2.1^6,^9.1^1^0,^1^4.0^2,^7.0^1^5,^2^0]tetratriaconta-2,4,6(34),8,10(33),11,13,15(20),16,18-decaen-3-yl]acetic Acid], the EC50 (read-out: Activity) was less than 0.1 µM.

Consider `Cc1ccc2c(c1)O[C@@H](C)COCCOC1(C)CCN(CC1)c1c([C@H](OC(C)(C)C)C(=O)O)c(C)cc3nc(cn13)-c1cccc-2c1` [Example 22, (2S)-2-(tert-Butoxy)-2-[(22S)-4,18,22,28-tetramethyl-21,24,27-trioxa-1,7,34-triazahexacyclo[26.2.2.1^6,^9.1^1^0,^1^4.0^2,^7.0^1^5,^2^0]tetratriaconta-2,4,6(34),8,10(33),11,13,15(20),16,18-decaen-3-yl]acetic Acid], for which, under “read-out: Activity”, the EC50 was less than 0.1 µM.

Take `Cc1c([C@H](OC(C)(C)C)C(=O)O)c2n3cc(nc3c1C#N)-c1cccc(c1)-c1cc(F)c(F)cc1O[C@@H](C)COCCOC1(C)CCN2CC1` [Example 17, (2S)-2-(tert-Butoxy)-2-[(22S)-5-cyano-17,18-difluoro-4,22,28-trimethyl-21,24,27-trioxa-1,7,34-triazahexacyclo[26.2.2.1^6,^9.1^1^0,^1^4.0^2,^7.0^1^5,^2^0]tetratriaconta-2,4,6(34),8,10(33),11,13,15(20),16,18-decaen3-yl]acetic Acid]: for the setting “read-out: Activity”, the EC50 was less than 0.1 µM.

As for `Cc1c([C@H](OC(C)(C)C)C(=O)O)c2n3c(Cl)c(nc3c1Cn1cccn1)-c1cccc(c1)-c1cc(F)c(F)cc1O[C@@H](C)COCCOC1(C)CCN2CC1` [Example 10, (2S)-2-(tert-Butoxy)-2-[(22S)-8-chloro-17,18-difluoro-4,22,28-trimethyl-5-(1H-pyrazol-1-ylmethyl)-21,24,27-trioxa-1,7,34-triazahexacyclo[26.2.2.1^6,^9.1^1^0,^1^4.0^2,^7.0^1^5,^2^0]tetratriaconta-2,4,6(34),8,10(33),11,13,15(20),16,18-decaen-3-yl]acetic acid], the EC50 by setting is: (read-out: Activity) less than 0.1 µM; (read-out: EC50 μM) 0.005 µM.

Take `Cc1c([C@H](OC(C)(C)C)C(=O)O)c2n3c(Cl)c(nc3c1C)-c1cccc(c1)-c1cc(F)ccc1O[C@@H](C)COCCOC1(C)CCN2CC1` [Example 29, (2S)-2-(tert-butoxy)-2-((6S,E)-23-chloro-45-fluoro-14,27,28,6-tetramethyl-5,8,11-trioxa-2(5,2)-imidazo[1,2-a]pyridina-1(1,4)-piperidina-3(1,3),4(1,2)-dibenzenacycloundecaphane-26-yl)acetic Acid]: the EC50 was less than 0.1 µM (read-out: Activity) and 0.001 µM (read-out: EC50 μM).

Turning to `Cc1c([C@H](OC(C)(C)C)C(=O)O)c2n3cc(nc3c1C)-c1cccc(c1)-c1cc(F)ccc1O[C@@H](C)COCCOC1(C)CCN2CC1` [Example 28, (2S)-2-(tert-Butoxy)-2-((6S,Z)-45-fluoro-14,27,28,6-tetramethyl-5,8,11-trioxa-2(5,2)-imidazo[1,2-a]pyridina-1(1,4)-piperidina-3(1,3),4(1,2)-dibenzenacycloundecaphane-26-yl)acetic Acid], the EC50 (read-out: Activity) was less than 0.1 µM.

In the case of `Cc1ccc2c(c1)O[C@@H](C)COCCOC1(C)CCN(CC1)c1c([C@H](OC(C)(C)C)C(=O)O)c(C)c(C)c3nc(cn13)-c1cccc-2c1` [Example 23, (2S)-2-(tert-Butoxy)-2-((6S,Z)-14,27,28,44,6-pentamethyl-5,8,11-trioxa-2(5,2)-imidazo[1,2-a]pyridina-1(1,4)-piperidina-3(1,3),4(1,2)-dibenzenacycloundecaphane-26-yl)acetic Acid], the EC50 (read-out: Activity) was less than 0.1 µM.

For the compound `Cc1c([C@H](OC(C)(C)C)C(=O)O)c2n3cc(nc3c1C(C)O)-c1cccc(c1)-c1cc(F)c(F)cc1O[C@@H](C)COCCOC1(C)CCN2CC1` (single isomer, unassigned) [Example 16], the EC50 (read-out: Activity) is less than 0.1 µM and the EC50 (read-out: EC50 μM) came to 0.002 µM.

As for `Cc1ccc2c(c1)-c1cccc(c1)-c1cn3c(c([C@H](OC(C)(C)C)C(=O)O)c(C)c(C)c3n1)N1CCC(C)(CC1)OCCOC[C@H](C)O2` [Example 26, (2S)-2-(tert-Butoxy)-2-[(22S)-4,5,17,22,28-pentamethyl-21,24,27-trioxa-1,7,34-triazahexacyclo[26.2.2.1^6,^9.1^1^0,^1^4.0^2,^7.0^1^5,^2^0]tetratriaconta-2,4,6(34),8,10(33),11,13,15(20),16,18-decaen-3-yl]acetic Acid], the EC50 (read-out: Activity) is less than 0.1 µM.

For `Cc1c([C@H](O)C(=O)O)c2n3cc(nc3c1C)-c1cccc(c1)-c1cc(F)c(F)cc1O[C@@H](C)COCCOC1(C)CCN2CC1` [Example 5, (2S)-2-[(22S)-17,18-Difluoro-4,5,22,28-tetramethyl-21,24,27-trioxa-1,7,34-triazahexacyclo[26.2.2.1^6,^9.1^1^0,^1^4.0^2,^7.0^1^5,^2^0]tetratriaconta-2,4,6(34),8,10(33),11,13,15(20),16,18-decaen-3-yl]-2-hydroxyacetic Acid], the EC50 runs as follows: (read-out: Activity) 0.1 to 1 µM; (read-out: EC50 μM) 0.283 µM.

The values above are taken from patent US10138253B2, “Imidazopyridine macrocycles as inhibitors of human immunodeficiency virus replication” (priority 2015, dated 2018).
